Patent publication US20230257415A1, “COMPOUNDS FOR TREATING CNS DISORDERS” (SAGE THERAPEUTICS, INC., priority 2019, published 2023)

Target: GABAA receptor
Test: [35S]-TBPS binding assay, rat brain cortical membranes, in the presence of GABA
Settings: inhibition of 3 nM [35S]-TBPS binding, 5 mM GABA, 90 min, room temp
Procedure: [35S]-t-Butylbicyclophosphorothionate (TBPS) binding assays using rat brain cortical membranes in the presence of 5 mM GABA has been described (Gee et al, J. Pharmacol. Exp. Ther. 1987, 241, 346-353; Hawkinson et al, Mol. Pharmacol. 1994, 46, 977-985; Lewin, A.H et al., Mol. Pharmacol. 1989, 35, 189-194).
Briefly, cortices are rapidly removed following decapitation of carbon dioxide-anesthetized Sprague-Dawley rats (200-250 g). The cortices are homogenized in 10 volumes of ice-cold 0.32 M sucrose using a glass/teflon homogenizer and centrifuged at 1500 x g for 10 min at 4° C. The resultant supernatants are centrifuged at 10,000 x g for 20 min at 4° C. to obtain the P2 pellets. The P2 pellets are resuspended in 200 mM NaCl/50 mM Na-K phosphate pH 7.4 buffer and centrifuged at 10,000 x g for 10 min at 4° C. This washing procedure is repeated twice and the pellets are resuspended in 10 volumes of buffer. Aliquots ([…]) of the membrane suspensions are incubated with 3 nM [^35S]-TBPS and […] aliquots of test drug dissolved in dimethyl sulfoxide (DMSO) (final 0.5%) in the presence of 5 mM GABA. The incubation is brought to a final volume of 1.0 mL with buffer. […] Following a 90 min incubation at room temp, the assays are terminated by filtration through glass fiber filters (Schleicher and Schuell No. 32) using a cell harvester (Brandel) and rinsed three times with ice-cold buffer. Filter bound radioactivity is measured by liquid scintillation spectrometry. Non-linear curve fitting of the overall data for each drug averaged for each concentration is done using Prism (GraphPad). […] The concentration of test compound producing 50% inhibition (IC50) of specific binding and the maximal extent of inhibition (Imax) are determined for the individual experiments with the same model used for the overall data and then the means ± SEM.s of the individual experiments are calculated.
Various compounds are or can be screened to determine their potential as modulators of [^35S]-TBPS binding in vitro. These assays are or can be performed in accordance with the above.

SMILES | IC50 [nM]
COC[C@@]1(O)CC[C@@H]2C3CC[C@]4(C)[C@@H]([C@H](C)NC(=O)c5ccc(F)cc5)CCC[C@H]4[C@@H]3CC[C@@H]2C1 (stereo partly drawn) [Example 45, 4-fluoro-N-((1S)-1-((1S,4aS,4bR,6aR,8R,10aS,12aS)-8-hydroxy-8-(methoxymethyl)-12a-methyloctadecahydrochrysen-1-yl)ethyl)benzamide] | 100 to 1000
C[C@@H](Cn1cc(C#N)cn1)[C@H]1CCC[C@H]2[C@@H]3CC[C@@H]4C[C@](C)(O)CC[C@@H]4[C@H]3CC[C@]12C [Example 4, 1-((R)-2-((1R,4aS,4bR,6aR,8R,10aS,10bR,12aS)-8-hydroxy-8,12a-dimethyloctadecahydrochrysen-1-yl)propyl)-1H-pyrazole-4-carbonitrile] | < 100
CCC[C@@]1(O)CC[C@H]2[C@@H](CC[C@@H]3[C@@H]2CC[C@]2(C)[C@@H]([C@@H](C)Cn4nnc(C)n4)CCC[C@@H]32)C1 [Example 5, (2R,4aS,4bR,6aS,7R,10aS,10bR,12aS)-6a-methyl-7-((R)-1-(5-methyl-2H-tetrazol-2-yl)propan-2-yl)-2-propyloctadecahydrochrysen-2-ol] | 100 to 1000
C[C@@H](NC(=O)c1ccc(C#N)cc1)[C@H]1CCC[C@H]2[C@@H]3CC[C@@H]4C[C@](C)(O)CC[C@@H]4C3CC[C@]12C (stereo partly drawn) [Example 43, 4-cyano-N-((1R)-1-((1S,4aS,4bR,6aR,8R,10aS,12aS)-8-hydroxy-8,12a-dimethyloctadecahydrochrysen-1-yl)ethyl)benzamide] | 100 to 1000
C[C@@]1(O)CC[C@H]2[C@H](CC[C@@H]3[C@@H]2CC[C@]2(C)[C@@H](CNC(=O)c4cccnc4)CCC[C@@H]32)C1 [Example 35, N-(((1S,4aS,4bR,6aR,8R,10aS,10bR,12aS)-8-hydroxy-8,12a-dimethyloctadecahydrochrysen-1-yl)methyl)nicotinamide] | 100 to 1000
